Reference: US5219859A, “Indole derivatives, preparation processes and medicinal products containing them” (Lipha, Lyonnaise Industrielle Pharmaceutique, priority 1991, dated 1993)

Tests used:
[1] = molecular target: T1, aortic ACAT (acylcoenzyme A:cholesterol acyltransferase) (Oryctolagus cuniculus, UniProt A0A5F9CPP4); experiment: Test A: measurement of the inhibition of aortic ACAT in vitro in rabbits; type: biochemical, male New Zealand rabbits; conditions: microsomal fraction of aorta of rabbits on a diet enriched with 1.25% of cholesterol; [^14 C]oleylcoenzyme A; read-out: 50% inhibitory concentration (IC50), concentration of compound which inhibits the ACAT activity by 50%
T1 construct: the aorta is removed, dissected and homogenised in order to prepare the microsomal fraction of it by ultracentrifugation; from tissue; host or cells: aorta microsomes of cholesterol-fed male New Zealand rabbits
T1 sequence (A0A5F9CPP4 1-555): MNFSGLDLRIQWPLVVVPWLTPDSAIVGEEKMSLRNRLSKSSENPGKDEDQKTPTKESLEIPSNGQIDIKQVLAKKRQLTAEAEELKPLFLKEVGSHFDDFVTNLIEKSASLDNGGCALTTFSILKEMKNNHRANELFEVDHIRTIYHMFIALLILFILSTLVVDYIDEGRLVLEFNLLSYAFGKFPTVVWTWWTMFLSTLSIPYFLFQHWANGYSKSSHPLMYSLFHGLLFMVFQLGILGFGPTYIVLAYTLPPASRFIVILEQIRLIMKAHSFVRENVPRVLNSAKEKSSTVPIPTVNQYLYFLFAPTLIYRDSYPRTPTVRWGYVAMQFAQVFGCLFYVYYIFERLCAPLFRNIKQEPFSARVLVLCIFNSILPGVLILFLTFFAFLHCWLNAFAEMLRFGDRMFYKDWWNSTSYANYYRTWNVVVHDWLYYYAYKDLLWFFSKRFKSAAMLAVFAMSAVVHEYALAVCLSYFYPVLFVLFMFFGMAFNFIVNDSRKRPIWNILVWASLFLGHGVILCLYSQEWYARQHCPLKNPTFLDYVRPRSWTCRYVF
Experimental: Test A: measurement of the inhibition of aortic ACAT in virro in rabbits: male New Zealand rabbits weighing between 2.2 and 2.5 kg, subjected beforehand for 15 days to a diet enriched with 1.25% of cholesterol, are sacrificed by cervical dislocation; the aorta is removed, dissected and homogenised in order to prepare the microsomal fraction of it by ultracentrifugation; these microsomes are incubated in the presence of [^14 C]oleylcoenzyme A in accordance with the method described by P. J. GILLIES et al., Exp. and Mol. Pathol., 1986, 44, 329-339; the lipids are extracted from the incubate with a methanol/chloroform mixture and the [^14 C]oleylcholesterol is separated by TLC: the latter compound represents a measure of the ACAT activity, and the results were expressed in the form of a 50% inhibitory concentration (IC50), representing the concentration of compound which inhibits the ACAT activity by 50%.

blood cholesterol level = experiment: Test B: measurement of the hypocholesterolaemic effect in rodents; type: in vivo, male Wistar rats; conditions: Rattus norvegicus, po; rats, diet enriched with 2.5% of cholesterol for 8 days; orally, 24 hours and 4 hours before sacrifice; read-out: 25% effective dose (ED25), quantity of compound which lowers the blood cholesterol level by 25%
Experimental: Test B: measurement of the hypocholesterolaemic effect in rodents: male Wistar rats weighing 200-220 g are subjected to a diet enriched with 2.5% of cholesterol for 8 days; on the last two days, they are treated orally with the test product 24 hours and 4 hours before being sacrificed by exsanguination: the blood cholesterol level is evaluated on an aliquot fraction of serum by an automated enzymatic method. The results are expressed in the form of a 25% effective dose (ED25) in mg per kg of body weight, representing the quantity of compound which lowers the blood cholesterol level by 25%.

[2] = system: intestinal absorption of cholesterol; experiment: Test C: measurement of the inhibition of intestinal absorption in rats; type: in vivo, male Wistar rats; conditions: Rattus norvegicus, po, fasted 24 hours, orally, with Triton WR-1339 I.V., [^3 H]cholesterol orally one hour later, blood three hours later, read-out: 50% effective dose (ED50), quantity of compound which inhibits the intestinal absorption of cholesterol by 50%
Experimental: Test C: measurement of the inhibition of intestinal absorption in rats; male Wistar rats weighing 230-250 g, fasted for 24 hours, are treated simultaneously with the test product administered orally and with Triton WR-1339 administered I.V.; one hour later, they are again treated orally with [^3 H]cholesterol; three hours later, under ether anaesthesia, 1 ml of blood is withdrawn from the animals' retro-orbital sinus: the blood radioactivity, evaluated on 0.1 ml of serum, represents a measure of the absorption of the [^3 H]cholesterol administered. The results are expressed in the form of a 50% effective dose (ED50) in mg per kg of body weight, representing the quantity of compound which inhibits the intestinal absorption of cholesterol by 50%.

blood sugar level = experiment: Test D: measurement of the hypoglycaemic effect; type: in vivo, male Swiss mice; conditions: mice, orally, dose of 60 mg.kg, one hour
Experimental: Test D: measurement of the hypoglycaemic effect: male Swiss mice weighing 26-28 g are treated orally with the test product. One hour later, the animals are sacrificed by exsanguination, and the blood sugar level is measured on an aliquot fraction of plasma by an enzymatic method employing glucose oxidase.

## CC(C)c1cccc(C(C)C)c1NC(=O)NCC1(c2cn(C)c3ccccc23)CCCC1 [compound No. 1, N^1-(2,6-Diisopropylphenyl)-N^2-[1-(1-methyl-3-indolyl)-cyclopentylmethyl]urea]
[1]
  IC50: 46 nM
Blood cholesterol level
  ED25: 0.098 mg/kg
[2]
  ED50: 0.176 mg/kg
Blood sugar level
  significant lowering of the blood sugar level: 21%
